Experiments:
Assay type in all cases: cell-based
[1] = test system: Neisseria meningitidis strain TR 16504; assay: MIC of penicillin G, strain TR 16504; conditions: strain TR 16504, serogroup C
Description: (§1) Features of all Neisseria meningitidis strains for which a recombinant Neisseria meningitidis PBP2 fragment lacking the N-terminal transmembrane domain was produced are listed in following Table 3.

[2] = test system: Neisseria meningitidis strain LNP16504; assay: MIC of penicillin G, strain LNP16504; conditions: strain LNP16504, serogroup B
Description: as §1

[3] = test system: Neisseria meningitidis strain TR TH-41; assay: MIC of penicillin G, strain TR TH-41; conditions: strain TR TH-41, serogroup C
Description: as §1

[4] = test system: Neisseria meningitidis strain LNP8013; assay: MIC of penicillin G, strain LNP8013; conditions: strain LNP8013, serogroup C
Description: as §1

[5] = test system: Neisseria meningitidis strain LNP17723; assay: MIC of penicillin G, strain LNP17723; conditions: strain LNP17723, serogroup C
Description: as §1

[6] = test system: Neisseria meningitidis strain LNP17041; assay: MIC of penicillin G, strain LNP17041; conditions: strain LNP17041, serogroup B
Description: as §1

[7] = test system: Neisseria meningitidis strain TR 16454; assay: MIC of penicillin G, strain TR 16454; conditions: strain TR 16454, serogroup C
Description: as §1

[8] = test system: Neisseria meningitidis strain LNP16454; assay: MIC of penicillin G, strain LNP16454; conditions: strain LNP16454, serogroup C
Description: as §1

SMILES: CC1(C)S[C@@H]2[C@H](NC(=O)Cc3ccccc3)C(=O)N2[C@H]1C(=O)O [Penicillin G]
- MIC Penicillin G [1]: 0.38 µg/mL
- MIC Penicillin G [2]: 0.25 µg/mL
- MIC Penicillin G [3]: 0.5 µg/mL
- MIC Penicillin G [4]: 0.094 µg/mL
- MIC Penicillin G [5]: 0.75 µg/mL
- MIC Penicillin G [6]: 0.5 µg/mL
- MIC Penicillin G [7]: 0.5 µg/mL
- MIC Penicillin G [8]: 1 µg/mL

— US20090053237A1, “USE OF PENICILLIN-BINDING PROTEINS OR POLYNUCLEOTIDES OR ANTIBODIES THEREOF FOR PREVENTING OR TREATING BACTERIAL INFECTIONS” (priority 2005, published 2009)
